Data as given in PMC9732253, “Inhibition of the Phosphatidylinositol-3 Kinase Pathway Using Bimiralisib in Loss-of-Function NOTCH1-Mutant Head and Neck Cancer” (The Oncologist, 2022).
Values joined by “and” are separate entries in the source; they are usually repeats but may differ in a detail not shown here. Identical values can stand only once.

Legend:
[1] = cited from earlier work
[2] = tested on: mTOR; details: cited from earlier work
[3] = tested on: NOTCH1-mutant HNSCC; assay: Phase II single-arm trial, tumor response by RECIST 1.1 and survival; assay type: in vivo, human; details: for Median OS / Median PFS: all 8 patients; for Median PFS: 95% CI 39-199 days
Description: Adults with an Eastern Cooperative Oncology Group performance status of ≤2, measurable disease according to Response Evaluation Criteria in Solid Tumors (RECIST) version 1.1,[1] and histologically confirmed recurrent or metastatic (R/M) HNSCC for which no standard curative or life-prolonging therapy was available were eligible. All patients had already received platinum chemotherapy and α-PD1 immunotherapy unless unable to tolerate them. […] Safety was continuously monitored. Demographic and clinical characteristics were summarized using univariate statistics, including mean, median, and standard deviation or frequency and percentage. Objective response rate was summarized by frequency and percentage with a 2-sided 95% […] CI.[5] Duration of response, PFS, and overall survival were analyzed using the Kaplan-Meier method.[6] All statistical analyses were performed using R statistical software (version 3.6.3, R Core Team, 2020). Survival modeling was performed using the “survival” package.[7] […] Time to response was defined as the time from first study drug administration to the first documentation of response (complete or partial). Duration of response was defined as the time from the date of the first confirmed response to the first documentation of disease progression. PFS was defined as the time from first study drug administration to disease progression or death due to any cause. Overall survival was defined as the time from first study drug administration to death due to any cause.

[4] = number (%) of 6 patients evaluated for efficacy, RECIST 1.1

## Nc1cc(C(F)(F)F)c(-c2nc(N3CCOCC3)nc(N3CCOCC3)n2)cn1 [Bimiralisib, 5-(4,6-dimorpholino-1,3,5-triazin-2-yl)-4-(trifluoromethyl)pyridin-2-amine]
[1]; after oral administration
  Time of maximum plasma concentration, latest: ≤ 24 h
[1]; dose of 150 mg, ref 11 (Wicki et al)
  Highest Cmax: 998 ng/mL
[1]; in vivo
  Terminal half-life: 40 h
[1]; most humans, oral
  Time of maximum plasma concentration after a dose: 1 to 2 h
[2]
  Inhibition of mTOR: potently inhibits
[3]; 6 evaluable patients
  Response duration: 111 days
[3]; 6 evaluable patients (1/6), RECIST 1.1, 140 mg orally on 2 consecutive days weekly, 95% CI 1-58%
  Objective response rate: 17%
[3]; CI: 83-inf
  Median TTP: 167 days (CI: 83-inf)
[3]
  Median OS: 7 months
  Median PFS: 147 days (CI: 39-199)
[3]; listed as bimiralisib
  Median PFS: 147 days
[3]; 95% CI 39 days-infinity
  Median OS: 215 days (CI: 39-inf)
[3]; 95% CI 39 days-infinity, listed as bimiralisib
  Median OS: 215 days
[3]; [4]
  Response assessment, CR: 0 (0%)
  Response assessment, PR: 1 (17%)
[3]; one patient with confirmed partial response
  Reduction in the target lesion size: 49%
[3]; one patient with progressive disease
  Day of progressive disease: 83
[3]; patient with confirmed partial response, in study until day 157
  Reduction in the target lesion size compared with baseline, final computed tomography scan: 45%
[3]; three patients with confirmed stable disease, one value each
  Day of disease progression: 91 days and 138 days and 167 days
